This is an account of results in patent US9517245B2, “Sorafenib-microRNA combination therapy for liver cancer” (Mirna Therapeutics, Inc., priority 2014, dated 2016).

Where two headings read alike, the source gives them in different places.

Data set [1] concerns four liver cancer cell lines (Hep3b, HepG2, C3A, Huh7). The data set is described as follows: combination studies in four liver cancer cell lines (overall synergy statements). Conditions: combination with miRNA mimic instead of sorafenib; data not shown. The class given is cell-based.
For data set [2] the following is noted: cited from earlier work.
Data set [3] has as its system Hep3b liver cancer cells. The data set is described as follows: sorafenib dose-effect, AlamarBlue cell proliferation. The data set is classed as cell-based. To be noted: Homo sapiens, 72 h, AlamarBlue 3 days post drug treatment, range from two or three experiments. The protocol:
(§1) FIG. 2 illustrates dose-effect curves of sorafenib in liver cancer cells. Cells were seed in 96-well plate at 2000 cells per well. Three days after seeding the cells, sorafenib in a serial dilution from (0.1-100 μM) was added to the medium. Cell proliferation or percent inhibition was determined by AlamarBlue 3 days post drug treatment. Data were normalized to cells treated with sorafenib solvent (1% DMSO final concentration).
(§2) Sorafenib dose response curves were established in each cell line, and the cell proliferation was determined using AlamarBlue (Invitrogen) 3 days post drug treatment. Nonlinear regression and IC50 values were calculated using the GraphPad (Prism) software.
(§3) FIG. 2 illustrates dose-effect curves of sorafenib in liver cancer cells. Cells were seed in 96-well plate at 2000 cells per well. Three days after seeding the cells, sorafenib in a serial dilution from (0.1-100 μM) was added to the medium. Cell proliferation or percent inhibition was determined by AlamarBlue 3 days post drug treatment, and IC50 values were calculated using the GraphPad software.
Background: Alamar Blue is a resazurin reagent that responds to reducing activity.

Data set [4] has as its system HepG2 liver cancer cells. Described as above. The class given is cell-based. To be noted: Homo sapiens, 72 h, AlamarBlue 3 days post drug treatment, range from two or three experiments. The protocol: as §1, §2, §3
Data set [5] deals with C3A liver cancer cells. The data set is described as above. The data set is classed as cell-based. Conditions: 72 h, AlamarBlue 3 days post drug treatment, range from two or three experiments. The protocol: as §1, §2, §3
For data set [6], the system named is Huh7 liver cancer cells. The description is as above. Conditions: Homo sapiens, Huh-7, 72 h, AlamarBlue 3 days post drug treatment, range from two or three experiments. The class given is cell-based. The method, then: as §1, §2, §3

Turning to `O=c1[nH]cc(F)c(=O)[nH]1` [5-FU], in data set [1], the “synergy in combinations with other chemotherapeutic agents” value is listed as “synergy was not identified”.
`CNC(=O)c1cc(Oc2ccc(NC(=O)Nc3ccc(Cl)c(C(F)(F)F)c3)cc2)ccn1.Cc1ccc(S(=O)(=O)O)cc1` [Sorafenib tosylate, 4-(4-{3-[4-Chloro-3 (trifluoromethyl)phenyl]ureido}phenoxy) N-methylpyridine-2-carboxamide 4-methylbenzenesulfonate]: the solubility result in data set [2] (PEG 400) is “soluble”; in data set [2] (aqueous media), “practically insoluble”; in data set [2] (ethanol), “slightly soluble”.
The term IC50 denotes the point on the concentration scale where inhibition reaches its midpoint. Low readings indicate inhibition by little substance, high ones a need for much substance. Consider `CNC(=O)c1cc(Oc2ccc(NC(=O)Nc3ccc(Cl)c(C(F)(F)F)c3)cc2)ccn1` [Sorafenib], for which the IC50 in data set [3] is 5.4 to 12.7 µM; in data set [4], 6.7 to 9 µM; in data set [5], 10.7 to 11.8 µM; in data set [6] it was 13.1 to 16 µM.
Turning to `COc1cccc2c1C(=O)c1c(O)c3c(c(O)c1C2=O)C[C@@](O)(C(=O)CO)C[C@@H]3O[C@H]1C[C@H](N)[C@H](O)[C@H](C)O1` [doxorubicin], in data set [1], the “synergy in combinations with other chemotherapeutic agents” value is “synergy was not identified”.
